What is called IC50 is the concentration needed to halve the response being measured.

The results in this text go back to patent US12612424B2, “HPK1 inhibitors and uses thereof” (Regor Pharmaceuticals, Inc., priority 2019, dated 2026).

Like-named read-outs stand apart in the source and are kept apart here. Bounds are passed on as bounds.

One assay has as its target T1, JAK3 (Homo sapiens, UniProt P52333).
T1 construct: purchased Thermo fisher PV3855
The assay can be described thus: JAK3 biochemical assay (ADP-GLO Kinase Assay). Conditions: for JAKs/HPK1 IC50 Ratio, B* / JAKs/HPK1 IC50 Ratio, N*: ratio of JAK3 IC50 to HPK1 IC50; for JAKs/HPK1 IC50 Ratio, B*: first testing facility; for JAKs/HPK1 IC50 Ratio, N*: second testing facility. Put shortly: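 Human JAK3 (0.78 ng) with 0.2 μg/μL Poly(E4Y1) and 4 μM ATP in 40 mM Tris pH 7.5, 20 mM MgCl2, 0.1 mg/ml BSA, 50 μM DTT, 1% DMSO; 60 min at 25 °C. ADP formed read by ADP-Glo luminescence. 10-dose 3-fold series from 10 μM; IC50 by three-parameter logistic fit.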
In general terms: In ADP-Glo the light output rises with the ADP produced.

The target of a further assay is HPK1 (Homo sapiens, UniProt Q92918). The experiment in a line: HPK1 biochemical assay (ADP-GLO Kinase Assay). Put shortly: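 HPK1 (0.6 ng/μL final) activity was followed with MBP substrate and 10 μM ATP in Tris pH 7.5/MgCl2/BSA/DTT buffer, measured by ADP-Glo luminescence. Compounds were tested as 3-fold dilutions from 10 μM. IC50 came from a three-parameter logistic fit, with inhibition normalised to high/low controls.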

Setting [1] is: B*: testing performed in a first testing facility, read-out: JAK3 IC50 (nM) Relative, B*.
Setting [2] is: B*: testing performed in a first testing facility, read-out: HPK1 IC50 (nM) Relative, B*.
[3] abbreviates: N*: testing performed in a second testing facility, read-out: JAK3 IC50 (nM) Relative, N*.
Setting [4] is: N*: testing performed in a second testing facility, read-out: HPK1 IC50 (nM) Relative, N*.

Sequence of HPK1 (Q92918 whole entry): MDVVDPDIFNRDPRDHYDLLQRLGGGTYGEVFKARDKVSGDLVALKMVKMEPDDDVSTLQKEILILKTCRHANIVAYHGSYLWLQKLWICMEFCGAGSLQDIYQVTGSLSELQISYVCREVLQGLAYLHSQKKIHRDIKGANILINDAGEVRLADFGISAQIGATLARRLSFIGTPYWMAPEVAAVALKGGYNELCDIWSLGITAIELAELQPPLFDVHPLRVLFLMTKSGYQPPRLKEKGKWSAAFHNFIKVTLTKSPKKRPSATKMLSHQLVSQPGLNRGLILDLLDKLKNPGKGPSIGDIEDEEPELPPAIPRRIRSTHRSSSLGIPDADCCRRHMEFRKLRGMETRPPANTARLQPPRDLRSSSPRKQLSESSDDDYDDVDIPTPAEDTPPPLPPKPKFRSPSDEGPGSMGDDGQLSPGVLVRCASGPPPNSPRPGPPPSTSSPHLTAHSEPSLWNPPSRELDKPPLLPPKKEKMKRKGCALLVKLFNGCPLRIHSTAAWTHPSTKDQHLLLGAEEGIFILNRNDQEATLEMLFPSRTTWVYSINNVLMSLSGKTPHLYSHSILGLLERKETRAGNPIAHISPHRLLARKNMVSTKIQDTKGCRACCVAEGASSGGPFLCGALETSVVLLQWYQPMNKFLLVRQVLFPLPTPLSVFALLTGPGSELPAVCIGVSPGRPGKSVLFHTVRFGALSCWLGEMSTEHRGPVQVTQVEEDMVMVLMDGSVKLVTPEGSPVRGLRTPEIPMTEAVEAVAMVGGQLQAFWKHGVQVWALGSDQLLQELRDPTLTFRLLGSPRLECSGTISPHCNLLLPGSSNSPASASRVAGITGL
T1 sequence (P52333 781-1124 limits assumed): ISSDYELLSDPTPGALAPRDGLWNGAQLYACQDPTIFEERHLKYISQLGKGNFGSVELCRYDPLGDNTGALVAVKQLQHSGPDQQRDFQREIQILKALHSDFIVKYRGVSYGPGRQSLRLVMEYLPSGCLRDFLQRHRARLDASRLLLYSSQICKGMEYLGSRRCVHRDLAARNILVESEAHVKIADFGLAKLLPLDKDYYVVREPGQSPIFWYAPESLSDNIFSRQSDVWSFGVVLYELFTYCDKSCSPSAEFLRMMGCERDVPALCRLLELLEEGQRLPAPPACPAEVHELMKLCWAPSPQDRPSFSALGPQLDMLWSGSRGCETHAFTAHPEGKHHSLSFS

As to `CCc1c[nH]c2ncc(-c3cc(NC(C)=O)cc(P(C)(C)=O)c3)cc12` [Example 68, N-(3-(dimethylphosphoryl)-5-(3-ethyl-1H-pyrrolo[2,3-b]pyridin-5-yl)phenyl)acetamide], the half-inhibitory concentration (IC50) was over 1000 nM on JAK3 (setting [1]) and 500 to 1000 nM at HPK1 (setting [2]). Besides, the “JAKs/HPK1 IC50 Ratio, B*” value at JAK3 stood at 2.
As for `CCc1c[nH]c2ncc(-c3ccc(CN(C)C)c(P(C)(C)=O)c3)cc12` [Example 65, (2-((Dimethylamino)methyl)-5-(3-ethyl-1H-pyrrolo[2,3-b]pyridin-5-yl)phenyl)dimethylphosphine oxide], the 50% inhibitory concentration (IC50) was over 1000 nM on JAK3 (setting [1]) and 500 to 1000 nM at HPK1 (setting [2]). The “JAKs/HPK1 IC50 Ratio, B*” value on JAK3 is on record as over 10.
As to `COc1cc2c(cc1Nc1ncc3ccn(-c4ccccc4P(C)(C)=O)c3n1)CN(C)CC2` [Example 39, (2-(2-((6-Methoxy-2-methyl-1,2,3,4-tetrahydroisoquinolin-7-yl)amino)-7H-pyrrolo[2,3-d]pyrimidin-7-yl)phenyl)dimethylphosphine oxide], the 50% inhibitory concentration (IC50) at JAK3 (setting [1]) is over 1000 nM; on HPK1 (setting [2]), 500 to 1000 nM. Further, the “JAKs/HPK1 IC50 Ratio, B*” value on JAK3 is over 18.
As for `COc1cc2c(cc1Nc1ncc3ccn(-c4ccccc4C(=O)N(C)C)c3n1)CN(C)CC2` [Example 38], the half-inhibitory concentration (IC50) on JAK3 (setting [3]) was over 1000 nM; at HPK1 (setting [2]), 100 to 500 nM; at HPK1 (setting [4]), at most 100 nM. At JAK3, the “JAKs/HPK1 IC50 Ratio, N*” value was over 163.
In the case of `CCc1c[nH]c2ncc(-c3ccc(C)c(P(C)(C)=O)n3)cc12` [Example 64, (6-(3-Ethyl-1H-pyrrolo[2,3-b]pyridin-5-yl)-3-methylpyridin-2-yl)dimethylphosphine oxide], the half-inhibitory concentration (IC50) is over 1000 nM on JAK3 (setting [1]) and at most 100 nM on HPK1 (setting [2]). On JAK3, the “JAKs/HPK1 IC50 Ratio, B*” value is given as 44.
With `CCc1c[nH]c2ncc(-c3ccc(F)c(P(C)(C)=O)c3N)cc12` [Example 60, (2-Amino-3-(3-ethyl-1H-pyrrolo[2,3-b]pyridin-5-yl)-6-fluorophenyl)dimethylphosphine oxide], the IC50 on JAK3 (setting [1]) was over 1000 nM; on HPK1 (setting [2]), at most 100 nM. Moreover, the “JAKs/HPK1 IC50 Ratio, B*” value on JAK3 worked out at 25.
As for `COc1cc2c(cc1Nc1ncc(Cl)c(-n3cc(S(C)(=O)=O)c4ccccc43)n1)CN(C)CC2` [Example 80, N-(5-chloro-4-(3-(methylsulfonyl)-1H-indol-1-yl)pyrimidin-2-yl)-6-methoxy-2-methyl-1,2,3,4-tetrahydroisoquinolin-7-amine], the results for the half-maximal inhibitory concentration (IC50) at JAK3 (setting [1]) and on HPK1 (setting [2]) were over 1000 nM and at most 100 nM, respectively. The “JAKs/HPK1 IC50 Ratio, B*” value on JAK3 is listed as over 1172.
As to `COc1cc2c(cc1Nc1ncc(Cl)c(N3CC(C)(C(=O)O)c4ccccc43)n1)CN(C)CC2` (stereo not shown) [Example 117], the half-inhibitory concentration (IC50) at JAK3 (setting [1]) and at HPK1 (setting [2]) was at most 100 nM each time. Moreover, the “JAKs/HPK1 IC50 Ratio, B*” value on JAK3 amounted to 5.
With `COc1nc2c(cc1Nc1ncc(Cl)c(N3CC(C)(CC(=O)O)c4ccccc43)n1)CN(C)CC2` (stereo not shown) [Example 155], the half-inhibitory concentration (IC50) at JAK3 (setting [1]) is over 1000 nM; on HPK1 (setting [2]), at most 100 nM. Moreover, the “JAKs/HPK1 IC50 Ratio, B*” value at JAK3 is recorded as over 111.
On to `CCc1c[nH]c2ncc(-c3cc(N)cc(P(C)(C)=O)c3)cc12` [Example 57, (3-Amino-5-(3-ethyl-1H-pyrrolo[2,3-b]pyridin-5-yl)phenyl)dimethylphosphine oxide], for which the IC50 was 500 to 1000 nM on JAK3 (setting [1]) and at most 100 nM at HPK1 (setting [2]). The “JAKs/HPK1 IC50 Ratio, B*” value at JAK3 is 22.
On to `CCc1c[nH]c2ncc(-c3ccc(N)c(P(C)(C)=O)c3)cc12` [Example 70, (2-Amino-5-(3-ethyl-1H-pyrrolo[2,3-b]pyridin-5-yl)phenyl)dimethylphosphine oxide], for which the IC50 at JAK3 (setting [1]) was 500 to 1000 nM; on JAK3 (setting [3]), 500 to 1000 nM; on HPK1 (setting [2]), at most 100 nM; at HPK1 (setting [4]) it was at most 100 nM. In addition, the “JAKs/HPK1 IC50 Ratio, B*” value at JAK3 is 70. On JAK3, the “JAKs/HPK1 IC50 Ratio, N*” value was found to be 50.
